From US9770526B2, “Absorbent article” (priority 2011, dated 2017)
Read-outs that look alike come from different tables or passages of the source.

Columns and labels:
[1] = Absorbent body migration rate; conditions: Example 2: agent coated on top sheet only, about 5 g/m^2; horse EDTA blood
Procedure: In addition to the rewetting rate evaluation, the “absorbent body migration rate” was also measured as the time until migration of blood from the top sheet to the absorbent body after the second dropping of blood. The absorbent body migration rate is the time from […].

[2] = Water solubility in 100 g of water at 25° C.
Source text: As used herein, the term “solubility” in regard to water solubility includes cases where the sample completely dissolves in deionized water to form a homogeneous mixture, and cases where the sample is completely emulsified. As used herein, “completely” means that no mass of the sample remains in the deionized water.

[3] = Rewetting rate of sanitary napkin; conditions: Example 2: agent coated on top sheet only, about 5 g/m^2; horse EDTA blood
Procedure: (obtained by adding ethylenediaminetetraacetic acid (hereunder, “EDTA”) to horse blood to prevent coagulation) was dropped through the hole using a pipette (once), and after 1 minute, 3 g of horse EDTA blood at 37±1° C. was again added dropwise through the acrylic board hole with a pipette (twice).
After the second dropping of blood, the acrylic board was immediately removed and 10 sheets of filter paper (50 mm×35 mm) were placed on the location where the blood had been dropped, and then a weight was placed thereover to a pressure of 30 g/cm^2. After 1 minute, the filter paper was removed and the “rewetting rate” was calculated by the following formula. Rewetting rate (%)=100×(filter paper mass after test−initial filter paper mass)/6

[4] = Surface tension of blood containing blood modifying agent (pendant drop method); set-up: species or system sheep; conditions: Amount 0.10 mass %; measuring temperature 35° C.
Procedure: The surface tension of blood containing a blood modifying agent was measured by the pendant drop method, using a Drop Master500 contact angle meter by Kyowa Interface Science Co., Ltd. The surface tension was measured after adding a prescribed amount of blood modifying agent to sheep defibrinated blood, and thoroughly shaking. The measurement was accomplished automatically with a device, and the surface tension γ was determined by the following formula (see FIG. 8). γ=g×ρ×(de)^2×1/H The density ρ was measured at the temperatures listed in Table 6, according to JIS K 2249-1995, “Density test methods and density/mass/volume conversion tables”, “5. Vibrating density test method”. The measurement was accomplished using a DA-505 by Kyoto Electronics Co., Ltd.

Row | Molecule | Absorbent body migration rate [1] [s] | Rewetting rate (%) [3] [%] | Water solubility [2] [g] | further results
1 | CCCCCCCC(=O)OCC(COC(=O)CCCCCCC)OC(=O)CCCCCCC [No. 2-8, Glycerin and fatty acid triester with octanoic acid (C8) as the entire fatty acid portion] | 3 | 0.3 |  | Water solubility ([2]; in 100 g of water at 25° C., 24 hours, visual): <0.05 g
2 | CCCCC(CC)C(=O)OCC(C)(C)COC(=O)C(CC)CCCC (stereo not drawn) [No. 2-15, Neopentylglycol di-2-ethylhexanoate] | 5 | 2.0 | <0.05 | 
3 | CCCCCCCCOC(=O)CCCCC(=O)OCCCCCCCC [No. 2-16, Dioctyl adipate] | 6 | 1.7 |  | 
4 | CCCCCCCCCCCCOC(=O)CCCCCCCCCCC [No. 2-17, Ester of dodecanoic acid (C12) and dodecyl alcohol (C12)] | 5 | 1.8 |  | Surface tension (mN/m) [4]: 58.8 mN/m
5 | CCCCCCCCCCCCCC(=O)OCCCCCCCCCCCC [No. 2-18, Ester of tetradecanoic acid (C14) and dodecyl alcohol (C12)] | 4 | 1.8 |  | 
6 | CCCCCCCCCCCC(=O)OCC(O)CO (stereo not drawn) [No. 2-31, lauric acid monoglyceride] |  | 6.2 |  | 
7 | Glycerin and fatty acid diester with octanoic acid as the fatty acid [No. 2-12] | 9 | 4.2 |  | 
8 | Glycerin and fatty acid triester with 2-ethylhexanoic acid (CO as the entire fatty acid portion [No. 2-9] | 3 | 2.0 |  | 
9 | Isopropyl citrate [No. 2-34] | 5 | 12.2 |  | 
10 | Polybutylene glycol [No. 2-23] |  |  | <0.05 | 
11 | Polyoxybutylenepolyoxypropylene glycol [No. 2-24] |  |  | <0.05 | 
12 | Polypropylene glycol [No. 2-19] |  |  | <0.05 | 
13 | Polypropylene glycol [No. 2-20] |  |  | <0.05 | 
14 | Polypropylene glycol [No. 2-21] |  |  | <0.05 | 
15 | Polypropylene glycol [No. 2-22] |  |  | <0.05 | 
16 | Polypropylene glycol [No. 2-35] |  |  |  | Water solubility (g) [2]: 0.05< g
